Data reported in patent publication US4908314A (priority 1987, dated 1990).

Tests used:
[1] = system: protein C activator of the present invention; experiment: biochemical; format: biochemical, Agkistrodon contortrix contortrix
[2] = biological target: protein C activator of the present invention (Agkistrodon contortrix contortrix, UniProt P09872); experiment: biochemical; format: biochemical
Protac® = details: cited from earlier work
[3] = system: protein C activator of Klein et al; details: cited from earlier work
Factor VIIIa = biological target: T1, Factor VIIIa (Homo sapiens, UniProt P00451); experiment: Inactivation of Factor VIIIa in vitro; format: biochemical; details: picomolar concentrations
T1 sequence (P00451 20-391 limits assumed): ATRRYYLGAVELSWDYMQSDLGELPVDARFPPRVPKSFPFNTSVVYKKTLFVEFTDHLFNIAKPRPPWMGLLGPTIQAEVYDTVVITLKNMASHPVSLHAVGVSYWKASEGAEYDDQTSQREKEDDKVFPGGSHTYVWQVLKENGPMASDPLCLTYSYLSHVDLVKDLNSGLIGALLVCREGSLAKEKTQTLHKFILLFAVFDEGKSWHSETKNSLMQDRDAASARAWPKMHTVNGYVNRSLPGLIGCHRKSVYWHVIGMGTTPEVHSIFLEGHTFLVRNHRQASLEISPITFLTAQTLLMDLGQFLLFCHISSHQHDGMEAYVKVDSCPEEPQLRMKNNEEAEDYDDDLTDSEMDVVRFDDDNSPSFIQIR
T1 sequence (P00451 392-759 limits assumed): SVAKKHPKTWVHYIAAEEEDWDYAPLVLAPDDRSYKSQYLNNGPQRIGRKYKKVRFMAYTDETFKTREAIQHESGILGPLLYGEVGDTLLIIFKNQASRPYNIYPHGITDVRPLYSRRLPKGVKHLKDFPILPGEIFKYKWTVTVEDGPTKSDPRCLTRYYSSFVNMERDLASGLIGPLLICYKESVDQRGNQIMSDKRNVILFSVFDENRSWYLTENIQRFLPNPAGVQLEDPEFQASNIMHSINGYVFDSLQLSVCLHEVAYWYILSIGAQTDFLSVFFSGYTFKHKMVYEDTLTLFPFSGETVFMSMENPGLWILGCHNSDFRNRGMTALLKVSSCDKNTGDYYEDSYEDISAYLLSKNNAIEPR
T1 sequence (P00451 1709-2351 limits assumed): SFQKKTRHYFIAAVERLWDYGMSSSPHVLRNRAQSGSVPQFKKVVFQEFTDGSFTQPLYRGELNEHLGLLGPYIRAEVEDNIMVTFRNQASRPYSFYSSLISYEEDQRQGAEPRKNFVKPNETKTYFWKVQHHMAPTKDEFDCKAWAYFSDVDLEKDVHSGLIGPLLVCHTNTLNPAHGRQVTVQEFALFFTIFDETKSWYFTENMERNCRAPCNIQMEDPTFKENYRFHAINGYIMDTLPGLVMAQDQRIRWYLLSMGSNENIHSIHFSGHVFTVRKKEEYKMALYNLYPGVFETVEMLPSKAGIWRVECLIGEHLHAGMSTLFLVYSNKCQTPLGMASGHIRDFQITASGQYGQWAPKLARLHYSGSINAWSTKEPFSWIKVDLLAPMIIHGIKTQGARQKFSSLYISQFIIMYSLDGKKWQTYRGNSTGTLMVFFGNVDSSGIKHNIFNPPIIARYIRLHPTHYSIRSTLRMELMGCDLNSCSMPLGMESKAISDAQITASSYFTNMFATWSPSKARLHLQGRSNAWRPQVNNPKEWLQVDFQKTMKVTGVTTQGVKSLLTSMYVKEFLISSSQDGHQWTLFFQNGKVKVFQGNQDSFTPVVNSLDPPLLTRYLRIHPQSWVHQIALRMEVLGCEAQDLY

[4] = system: plasminogen activator inhibitor (PAI); experiment: Neutralization of plasminogen activator inhibitor activity in vitro; format: biochemical
[5] = Amidolysis of chromogenic substrates; format: biochemical

protein C activator of the present invention (Agkistrodon contortrix contortrix, UniProt P09872), sequence (P09872 whole entry, looked up): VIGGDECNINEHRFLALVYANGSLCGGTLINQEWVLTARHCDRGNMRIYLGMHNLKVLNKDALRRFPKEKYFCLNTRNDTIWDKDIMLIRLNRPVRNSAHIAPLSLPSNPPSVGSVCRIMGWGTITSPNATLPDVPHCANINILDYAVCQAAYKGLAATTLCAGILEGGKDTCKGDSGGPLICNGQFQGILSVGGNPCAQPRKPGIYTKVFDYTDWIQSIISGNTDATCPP

Q: Which results are given for NC(N)=NCCC[C@H](NC(=O)[C@@H]1CCCN1C(=O)[C@H](N)Cc1ccccc1)C(=O)CCl [D-Phe-Pro-Arg-chloromethylketone]?
A: fold higher Ki than the Ki of thrombin inhibition [1]: approximately 500 fold; Inhibition of activity of the activator by serine protease inhibitors [2]: inhibited; Ki [2]: 34 µM

Q: For NC(=O)CI [iodoacetamide], which “Inhibition of activity of Protac” value (Protac®) is on record?
A: not inhibited

Q: Which “Inhibition of activity of the activator by serine protease inhibitors” value [2] does the source give for N=C(N)Nc1ccc(C(=O)Oc2ccc([N+](=O)[O-])cc2)cc1 [p-nitrophenyl, p-guanidinobenzoate] here?
A: inhibited

Q: Which “Inhibition of activity of the activator by serine protease inhibitors” value [2] does the source give for O=S(=O)(F)Cc1ccccc1 [phenylmethylsulphonylfluoride] here?
A: inhibited

Q: With Antithrombin III as the molecule, how does the “Inhibition of activity of the Klein et al activator” value [3] read?
A: no effect

Q: What does the source list for activated protein C?
A: inactivation of Factor VIIIa (Factor VIIIa): rapid inactivation; neutralization of PAI activity [4]: neutralization; activity of amidolysis of chromogenic substrates compared with thrombin-activated protein C [5]: approximately the same activity

B1: soybean trypsin inhibitor: serine protease inhibitor protein (protein, UniProt P01070 25-205, looked up)
Trypsin inhibitor A: DFVLDNEGNPLENGGTYYILSDITAFGGIRAAPTGNERCPLTVVQSRNELDKGIGTIISSPYRIRFIAEGHPLSLKFDSFAVIMLCVGIPTEWSVVEDLPEGPAVKIGENKDAMDGWFRLERVSDDEFNNYKLVFCPQQAEDDKCGDIGISIDHDDGTRRLVVSKNKPLVVQFQKLDKESL
Q: What does the source list for B1?
A: Inhibition of activity of the Klein et al activator [3]: inhibited; Inhibition of activity of the activator by serine protease inhibitors [2]: inhibited
